Experimental data reported in patent US7198949B2, “Compositions and methods for altering the biodistribution of biological agents” (Board of Regents of the University of Nebraska, priority 1996, dated 2007).
Marks after values point to notes of the source that are not given here.

Experiments:
[1] = molecular target: T1, albumin of PESDA microbubbles (Homo sapiens, UniProt P02768); assay: Partitioning of 35S-labeled PS-ODN between PESDA microbubble top layer and lower layer, liquid scintillation counting; assay type: binding; details: for BOTTOM / TOP: N 6; for TOP: top layer containing microbubbles
T1 construct: commercially available albumin (human), U.S.P. solution (generally supplied as 5% or 25% by weight sterile aqueous solutions); purchased
Protocol: Radiolabeled oligonucleotides were synthesized as hydrogen phosphonate material by Glen Research (Bethesda, Md.) The uniformly ^35S-labeled PS-ODN with sequences 5′-TATGCTGTGCCGGGGTCTTCGGGC 3′ (24-mer complementary to c-myb) (SEQ ID NO:2) and 5′ TTAGGG 3′ (SEQ ID NO:3) were incubated in a final volume of 0.5 ml with the perfluorocarbon-exposed sonicated dextrose albumin microbubble solution for 30 minutes at 37° C. The solutions were allowed to stand so that the bubbles could rise to the top and 100 microliters were removed from the clear solution at the bottom and 100 microliters were removed from the top containing the microbubbles.
Five percent human serum albumin and five percent dextrose were obtained from a commercial source. Three parts of 5% dexticse and one part 5% human serum albumin (total 16 milliliters) were drawn into a 35-milliliter Monojet syringe. Each dextrose albumin sample was hand agitated with 8±2 milliliters of either a fluorocarbon gas (decafluorobutane; molecular weight 238 grams/mole) or 8±2 milliliters of room air, and the sample was then exposed to electromechanical sonication at 20 kilohertz for 80±5 seconds. The mean size of four consecutive samples of the perfluorocarbon-exposed sonicated dextrose albumin (PESDA) microbubbles produced in this manner, as measured with hemocytometry was 4.6±0.4 microns, and mean concentration, as measured by a Coulter counter was 1.4×10^9 bubbles/milliliter. The solution of microbubbles was then washed in a 1000 times volume excess of 5% dextrose to remove albumin which was not associated with the microbubbles. The microbubbles were allowed four hours to rise. The lower solution was then removed leaving the washed foam. The washed foam was then mixed with 0.9% sodium chloride.
Radioactivity in solutions were determined by liquid scintillation counting in a liquid scintillation counter (model LSC7500; Beckman Instruments GmbH, Munich, Germany). The sample volume was 100 μl to which 5 ml of Hydrocount biodegradable scintillation cocktail was added and mixed. Samples were counted immediately after each experiment and then again 24 hours later in order to reduce the influence of chemiluminescence and of quenching.

human serum albumin = human serum albumin (Homo sapiens, UniProt P02768); details: cited from earlier work
albumin = albumin (Homo sapiens, UniProt P02768); details: drugs which bind to albumin at site 1; cited from earlier work
cytochrome P450 IIB1 = assay: Hexobarbital sleep time and biodistribution in rats given antisense oligos to cytochrome P450 IIB1 with or without PESDA microbubbles; assay type: in vivo, rat; details: PB alone × 2 days, 100 mg/kg HB i.p., control rats about 23 minutes
Protocol: The oligonucleotides were conjugated to perfluoropropane exposed sonicated dextrose albumin microbubbles (PESDA) as earlier described and delivered to rats intravenously.
Male Sprague-Dawley rats (Sasco, Omaha), were used and weighed between 210 to 290 grams for all studies. […] The animals were exposed to 12 hour light/dark cycle and allowed access to Purina rat chow and tap water ad libitum.
Rats in groups with PB were injected intraperitoneally with phenobarbital (Mallinckrodt, St. Louis) at 80 ml/kg/day×2 days. The PB injections were given simultaneously with the ODN-microbubble injections. Phosphorothioate ODN injections were 1 ml/kg/day×2 days. Sleep times were measured 48 hours after the first injection. The rats were injected intraperitoneally with 100 ml/kg hexobarbital (Sigma, St. Louis), paired fresh daily. The volume of this injection is 1 ml/kg body weight.
Each rat was injected with 100 mg/kg of hexobarbital intraperitoneally. The animals were placed on their backs to insure that they were still under sedation from the hexobarbital. Sleep time is defined as the time they are placed on their backs to the time when they roll over. The sleep times listed are the mean of each animal in the group±standard deviation.
As described earlier, 100 mg/kg HB was injected i.p. to each animal at the end of 2 days of treatment with PB and/or the ODNs.

[2] = bubbles in the presence of free albumin
[3] = bubbles in the presence of free albumin, lower clear layer
[4] = washed bubbles (no free albumin)
[5] = washed bubbles (no free albumin), lower layer

albumin, sequence (P02768 25-609): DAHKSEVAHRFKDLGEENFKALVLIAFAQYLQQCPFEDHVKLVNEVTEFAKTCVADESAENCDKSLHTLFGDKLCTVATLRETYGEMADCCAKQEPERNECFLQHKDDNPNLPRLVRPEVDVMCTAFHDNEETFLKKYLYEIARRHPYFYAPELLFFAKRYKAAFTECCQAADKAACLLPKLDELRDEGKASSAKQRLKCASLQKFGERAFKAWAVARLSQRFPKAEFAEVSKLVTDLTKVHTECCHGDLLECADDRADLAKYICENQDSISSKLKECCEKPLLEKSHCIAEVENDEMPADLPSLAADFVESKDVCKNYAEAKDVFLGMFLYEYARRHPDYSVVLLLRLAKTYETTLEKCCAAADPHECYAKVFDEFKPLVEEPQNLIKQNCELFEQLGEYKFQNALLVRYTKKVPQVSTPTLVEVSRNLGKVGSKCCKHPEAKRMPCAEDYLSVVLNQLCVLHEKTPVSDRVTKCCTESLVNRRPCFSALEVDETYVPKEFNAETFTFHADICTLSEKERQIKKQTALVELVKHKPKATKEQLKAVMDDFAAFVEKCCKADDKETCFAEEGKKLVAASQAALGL
T1 sequence (P02768 25-609): as above
human serum albumin, sequence (P02768 25-609): as above

## 5′ TTAGGG 3′
[1]; [2]
  RATIO T/B: 1.35
  TOP: 125 ± 6.4 cpm/μl
[1]; [3]
  BOTTOM: 92.3 ± 6.4 cpm/μl
[1]; [4]
  RATIO T/B: 1.67
  TOP: 210 ± 10.8 cpm/μl
[1]; [5]
  BOTTOM: 126 ± 8.7 cpm/μl

## 5′-TATGCTGTGCCGGGGTCTTCGGGC 3′ (antisense TATGCTGTGCCGGGGTCTTCGGGC; phosphorothioate backbone, 35S label, further chemistry not given here) [c-myb, uniformly 35S-labeled PS-ODN, 24-mer complementary to c-myb]
[1]; [2]
  RATIO T/B: 1.35
  TOP: 94.1 ± 17.6 cpm/μl
[1]; [3]
  BOTTOM: 77.3 ± 1.2 cpm/μl
[1]; [4]
  RATIO T/B: 2.16
  TOP: 200.3 ± 37.4 cpm/μl
[1]; [5]
  BOTTOM: 92.7 ± 15.7 cpm/μl

## 5′d(AACGTTGAGGGGCAT)-3′ [15 mer PS-ODN]
Human serum albumin
  binding to human serum albumin in solution (dissociation constant range): 3.7−4.8×10−5

## CO/N=C(\C(=O)N[C@@H]1C(=O)N2C(C(=O)O)=C(CSc3nc(=O)c(=O)[nH]n3C)CS[C@H]12)c1csc(N)n1 [Ceftriaxone]
albumin
  % Albumin Binding: 90–95* %

## NS(=O)(=O)c1cc(C(=O)O)c(NCc2ccco2)cc1Cl [Furosemide]
albumin
  % Albumin Binding: 98.8%

## Clc1ccc(COC(Cn2ccnc2)c2ccc(Cl)cc2Cl)c(Cl)c1 (stereo not drawn) [Miconazole]
albumin
  % Albumin Binding: 90.7–93.1* %

## CCC1(c2ccccc2)C(=O)NC(=O)NC1=O [PB, phenobarbital]
Cytochrome P450 IIB1
  sleep time: about 11.4±4.5 minutes

## O=C1NC(=O)C(c2ccccc2)(c2ccccc2)N1 [Phenytoin]
albumin
  % Albumin Binding: 89.0%

## CN1C(C(=O)Nc2ccccn2)=C(O)c2ccccc2S1(=O)=O [Piroxicam]
albumin
  % Albumin Binding: 99.3%

## Cc1noc(NS(=O)(=O)c2ccc(N)cc2)c1C [Sulfisoxazole]
albumin
  % Albumin Binding: 91.4%

## CCCC(CCC)C(=O)O [Valproic Acid]
albumin
  % Albumin Binding: 93.0%
